Measured values: article PMC9995496, “A screen for MeCP2-TBL1 interaction inhibitors using a luminescence-based assay” (Scientific Reports, 2023)
Where a name gives a salt, the structure may show the parent alone. Read-outs that look alike come from different tables or passages of the source.

Test system: PRKACA-PRKAR2A interaction (SmBiT-PRKACA / LgBiT-PRKAR2A), protein kinase A
Design: NanoLuc complementation counter-screen in cell extract, PRKACA with PRKAR2A, loss of luminescence, detects NanoLuc interference
Conditions: counter-screen for NanoLuc interference, 0.5 h, 20 µM, inhibitor

SMILES	Inh (PKA)	Inh (PKA) (Inh (PKA))
C[C@H](NC(=O)Cc1cc(F)cc(F)c1)C(=O)N[C@@H]1C(=O)N(C)c2ccccc2-c2ccccc21 [UM0141666:01, YO-01027 (Dibenzazepine, DBZ)]	4.42%	–
C[C@H](NC(=O)[C@@H](O)c1cc(F)cc(F)c1)C(=O)N[C@@H]1C(=O)N(C)c2ccccc2-c2ccccc21 [UM0141667:01, LY-411575]	13.09%	–
NC(=O)[C@@H](CCC(F)(F)F)N(Cc1ccc(-c2ncon2)cc1F)S(=O)(=O)c1ccc(Cl)cc1 [UM0141668:01, BMS-708163 (Avagacestat)]	25.28%	–
C[C@H](NC(=O)CCC(F)(F)F)C(=O)N[C@@H]1C(=O)N(CCO)c2ncccc2-c2ccccc21 [UM0141669:01, LY3039478]	-1.62%	–
CC(C)(C)OC(=O)N[C@H]1CCCCC/C=C\[C@@H]2C[C@@]2(C(=O)NS(=O)(=O)C2CC2)NC(=O)[C@@H]2C[C@@H](OC(=O)N3Cc4cccc(F)c4C3)CN2C1=O [UM0141670:01, Danoprevir (RG7227)]	3.662%	–
CCC[C@H](NC(=O)[C@@H]1[C@H]2CCC[C@H]2CN1C(=O)[C@@H](NC(=O)[C@@H](NC(=O)c1cnccn1)C1CCCCC1)C(C)(C)C)C(=O)C(=O)NC1CC1 [UM0141671:01, Telaprevir (VX-950)]	3.048%	–
CC(C)(C)C#Cc1cc(N(C(=O)[C@H]2CC[C@H](C)CC2)[C@H]2CC[C@H](O)CC2)c(C(=O)O)s1 [UM0141672:01, VX-222 (VCH-222, Lomibuvir)]	8.385%	–
CC#CCn1c(N2CCC[C@@H](N)C2)nc2c1c(=O)n(Cc1nc(C)c3ccccc3n1)c(=O)n2C [UM0141673:01, Linagliptin (BI-1356)]	1.695%	–
N[C@@H](CC(=O)N1CCn2c(nnc2C(F)(F)F)C1)Cc1cc(F)c(F)cc1F [UM0141674:01, Sitagliptin phosphate monohydrate]	–	0.152%
N#C[C@@H]1CCCN1C(=O)CNC12CC3CC(CC(O)(C3)C1)C2 [UM0141675:01, Vildagliptin (LAF-237)]	0.7818%	–
Cn1c(=O)cc(N2CCC[C@@H](N)C2)n(Cc2ccccc2C#N)c1=O [UM0141676:01, Alogliptin (SYR-322)]	–	0.7637%
COC(=O)N[C@H](C(=O)N[C@@H](Cc1ccccc1)[C@@H](O)CN(Cc1ccc(-c2ccccn2)cc1)NC(=O)[C@@H](NC(=O)OC)C(C)(C)C)C(C)(C)C [UM0141677:01, Atazanavir sulfate (BMS-232632-05)]	–	2.404%
CNC(=O)[C@@H](NC(=O)[C@H](CC(C)C)[C@H](O)C(=O)NO)C(C)(C)C [UM0141678:01, Marimastat]	0.03588%	–
CNC(=O)[C@H](Cc1c[nH]c2ccccc12)NC(=O)[C@@H](CC(=O)NO)CC(C)C [UM0141679:01, GM 6001]	-1.568%	–
CCCC(C)NC(=O)c1ccc(Cl)c(Cl)c1 (stereo not shown) [UM0141680:01, NSC 405020]	15.79%	–
C[C@H]1c2cccc(O)c2C(=O)C2=C(O)[C@]3(O)C(=O)C(C(N)=O)=C(O)[C@@H](N(C)C)[C@@H]3[C@@H](O)[C@@H]21 [UM0141681:01, Doxycycline hyclate]	–	1.233%
C=CCNC1=C2C[C@@H](C)C[C@H](OC)[C@H](O)[C@@H](C)/C=C(\C)[C@H](OC(N)=O)[C@@H](OC)/C=C\C=C(/C)C(=O)NC(=CC1=O)C2=O [UM0141682:01, 17-AAG (KOS953)]	8.06%	–
CC(C)c1cc(C(=O)N2Cc3ccc(CN4CCN(C)CC4)cc3C2)c(O)cc1O [UM0141683:01, AT13387]	8.919%	–
CCNC(=O)c1noc(-c2cc(C(C)C)c(O)cc2O)c1-c1ccc(CN2CCOCC2)cc1 [UM0141684:01, AUY922 (NVP-AUY922)]	15.87%	–
COc1c(C)cnc(Cn2cnc3c(Cl)nc(N)nc32)c1C [UM0141685:01, BIIB021]	2.432%	–

SMILES	Inh (PKA)	Inh (PKA) (Inh (PKA))
COC1=C2C[C@@H](C)C[C@H](OC)[C@H](O)[C@@H](C)/C=C(\C)[C@H](OC(N)=O)[C@@H](OC)/C=C\C=C(/C)C(=O)NC(=CC1=O)C2=O [UM0141686:01, Geldanamycin]	5.017%	–
CC1(C)CC(=O)c2c(C(F)(F)F)nn(-c3ccc(C(N)=O)c(N[C@H]4CC[C@H](OC(=O)CN)CC4)c3)c2C1 [UM0141688:01, PF-04929113 (SNX-5422)]	8.876%	–
CC1(C)CC(=O)c2c(C(F)(F)F)nn(-c3ccc(C(N)=O)c(N[C@H]4CC[C@H](O)CC4)c3)c2C1 [UM0141689:01, SNX-2112]	12.62%	–
Cn1c(N2CCCCS2(=O)=O)nc(C(=O)NCc2ccc(F)cc2)c(O)c1=O [UM0141690:01, BMS-707035]	4.266%	–
COc1cc2c(cc1Cc1cccc(Cl)c1F)c(=O)c(C(=O)O)cn2[C@H](CO)C(C)C [UM0141691:01, Elvitegravir (GS-9137)]	4.883%	–
CCN1C[C@H](C)n2c(c(O)c3c(=O)n(Cc4ccc(F)c(Cl)c4)nc(C(=O)NC)c32)C1=O [UM0141692:01, MK-2048]	3.571%	–
Cc1nnc(C(=O)NC(C)(C)c2nc(C(=O)NCc3ccc(F)cc3)c(O)c(=O)n2C)o1 [UM0141693:01, Raltegravir (MK-0518)]	1.324%	–
C[C@@H]1CCO[C@H]2Cn3cc(C(=O)NCc4ccc(F)cc4F)c(=O)c(O)c3C(=O)N12 [UM0141694:01, S/GSK1349572]	3.965%	–
O=C(CCCCCCNC(=O)c1cnc(N(c2ccccc2)c2ccccc2)nc1)NO [UM0141695:01, Rocilinostat (ACY-1215)]	1.949%	–
Nc1ccccc1NC(=O)c1ccc(CNc2nccc(-c3cccnc3)n2)cc1 [UM0141696:01, Mocetinostat (MGCD0103, MG0103)]	5.263%	–
Cn1cc(CNCC2CCN(c3ncc(C(=O)NO)cn3)CC2)c2ccccc21 [UM0141697:01, JNJ-26481585]	2.58%	–
COc1ccc(Cn2ccc3ccc(C(=O)NO)cc32)cc1 [UM0141698:01, PCI-34051]	4.873%	–
C#Cc1cccc(Nc2ncnc3cc(OC)c(OCCCCCCC(=O)NO)cc23)c1 [UM0141699:01, CUDC-101]	11.72%	–
CCN(CC)Cc1ccc2cc(COC(=O)Nc3ccc(C(=O)NO)cc3)ccc2c1 [UM0141700:01, ITF2357 (Givinostat)]	1.847%	–
Cn1cc(/C=C/C(=O)c2cccc(F)c2)cc1/C=C/C(=O)NO [UM0141701:01, MC1568]	48.72%	–
O=C(/C=C/c1cccc(S(=O)(=O)Nc2ccccc2)c1)NO [UM0141702:01, Belinostat (PXD101)]	1.422%	–
CN(C)Cc1c(C(=O)NCCOc2ccc(C(=O)NO)cc2)oc2ccccc12 [UM0141704:01, PCI-24781 (CRA-024781)]	0.8331%	–
O=C(/C=C/c1ccc(CN(CCO)CCc2c[nH]c3ccccc23)cc1)NO [UM0141707:01, LAQ824 (NVP-LAQ824,Dacinostat)]	3.4%	–
CC(C)[C@H](C(=O)Nc1ccc(C(=O)NO)cc1)c1ccccc1 [UM0141708:01, AR-42 (OSU-HDAC42)]	2.219%	–
CN(C)c1ccc(C(=O)NCCCCCCC(=O)NO)cc1 [UM0141709:01, M344]	1.639%	–

SMILES	Inh (PKA)	Inh (PKA) (Inh (PKA))
COc1cc2c(Nc3ccc(NC(=O)c4ccccc4)cc3)ncnc2cc1OCCCN1CCOCC1 [UM0141710:01, ZM 447439]	1.101%	–
O=C(O)c1ccc(Nc2ncc3c(n2)-c2ccc(Cl)cc2C(c2c(F)cccc2F)=NC3)cc1 [UM0141711:01, MLN8054]	70.21%	–
Nc1nc(Nc2ccc(S(N)(=O)=O)cc2)nn1C(=O)c1c(F)cccc1F [UM0141712:01, JNJ-7706621]	15.42%	–
CO[C@@H](C(=O)N1Cc2[nH]nc(NC(=O)c3ccc(N4CCN(C)CC4)cc3)c2C1)c1ccccc1 [UM0141713:01, Danusertib (PHA-739358)]	4.91%	–
O=C(Nc1c[nH]nc1-c1nc2ccc(CN3CCOCC3)cc2[nH]1)NC1CC1 [UM0141714:01, AT9283]	10.96%	–
CCS(=O)(=O)Nc1ccc2c(c1)/C(=C(/Nc1ccc(CN3CCCCC3)cc1)c1ccccc1)C(=O)N2 [UM0141715:01, Hesperadin]	53.45%	–
Cc1csc(-c2nnc(Nc3ccc(Oc4ncccc4-c4ccnc(N)n4)cc3)c3ccccc23)c1 [UM0141716:01, AMG-900]	63.02%	–
O=C(O)[C@]1(Cc2cccc(Nc3nccs3)n2)CC[C@@H](Oc2cccc(Cl)c2F)CC1 [UM0141717:01, MK-5108 (VX-689)]	44.53%	–
O=C(Nc1cccc(Cl)c1)Nc1ncc(CCNc2ncnc3ccsc23)s1 [UM0141718:01, SNS-314 Mesylate]	29.21%	–
CCc1cccc(CC)c1NC(=O)N1Cc2[nH]nc(NC(=O)c3ccc(N4CCN(C)CC4)cc3)c2C1 [UM0141719:01, PHA-680632]	7.851%	–
O=C(c1ccc(/C=C/c2n[nH]c3ccccc23)cc1)N1CCNCC1 [UM0141720:01, KW 2449]	34.71%	–
CCS(=O)(=O)c1cccc(-c2cc(C(=O)NC3CCN(C)CC3)c(C)c3[nH]c4ncc(C)cc4c23)c1 [UM0141721:01, TAK-901]	28.15%	–
Cc1nc(N)sc1-c1ccnc(Nc2ccc(N3CCOCC3)cc2)n1 [UM0141722:01, CYC116]	23.62%	–
CCN1CCN(C(=O)Cc2ccc(Nc3ncc(F)c(Nc4ccc(C(=O)Nc5ccccc5Cl)cc4)n3)cc2)CC1 [UM0141723:01, Aurora A Inhibitor I]	22.92%	–
Cc1cc(Nc2cc(N3CCN(C)CC3)nc(/C=C/c3ccccc3)n2)n[nH]1 [UM0141724:01, ENMD-2076 L-(+)-Tartaric acid]	–	17.98%
Cc1cc(Nc2cc(N3CCN(C)CC3)nc(/C=C/c3ccccc3)n2)n[nH]1 [UM0141725:01, ENMD-2076]	–	15.95%
CN(C)c1ccc(-c2nc3ncc(Cl)c(N4CCN(CC(=O)Nc5nccs5)CC4)c3[nH]2)cc1 [UM0141726:01, CCT129202]	76.32%	–
Cc1cc(CN2CCN(c3c(Br)cnc4nc(-c5ccc(N6CCN(C)CC6)cc5)[nH]c34)CC2)no1 [UM0141727:01, CCT137690]	46.74%	–
